Experimental data: ChEMBL document CHEMBL1135292, “A practical synthesis of (S) 3-tert-butoxycarbonylamino-2-oxo-2,3,4,5-tetrahydro-1,5-benzodiazepine-1-acetic acid methyl ester as a conformationally restricted dipeptido-mimetic for caspase-1 (ICE) inhibitors” (Bioorg Med Chem Lett, 2002)

What was measured:
[1] = organism: Homo sapiens; assay: Ability to block the release of interleukin-1 beta from human whole blood stimulated with heat-killed staphylococcus aureus; type: functional, organism-based
[2] = molecular target: T1, Caspase-1 (Homo sapiens, UniProt P29466); assay: Compound was tested for inhibitory activity against IL-1 beta converting enzyme
T1 sequence (P29466 whole entry): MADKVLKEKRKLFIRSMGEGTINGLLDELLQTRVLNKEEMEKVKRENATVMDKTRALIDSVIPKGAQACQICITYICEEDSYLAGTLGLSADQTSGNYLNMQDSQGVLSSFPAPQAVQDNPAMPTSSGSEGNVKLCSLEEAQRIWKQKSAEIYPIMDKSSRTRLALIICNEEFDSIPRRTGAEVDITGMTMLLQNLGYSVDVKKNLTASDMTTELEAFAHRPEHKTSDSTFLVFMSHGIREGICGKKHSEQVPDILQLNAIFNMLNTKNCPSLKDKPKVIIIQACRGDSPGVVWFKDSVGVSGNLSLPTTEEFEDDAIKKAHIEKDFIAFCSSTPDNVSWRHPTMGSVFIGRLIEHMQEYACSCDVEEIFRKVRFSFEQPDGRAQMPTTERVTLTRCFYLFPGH

For `CC(=O)N[C@@H](Cc1ccc(O)cc1)C(=O)N[C@H](C(=O)N[C@@H](C)C(=O)N[C@H]1CC(=O)OC1O)C(C)C` (some centres not stated), the IC50 [1] was 4000 nM.

`O=C(CN1C(=O)[C@@H](NC(=O)c2ccccc2)CN(C(=O)CCc2ccccc2)c2ccccc21)N[C@H]1CC(=O)OC1O` (some centres not stated) was tested, and the Ki [2] was 90 nM.
